Where two headings read alike, the source gives them in different places.
Molecular target: Full-length human SAMHD1 (Homo sapiens, UniProt Q9Y3Z3)
Assay: Enzyme-coupled malachite green
Type: biochemical
Settings: for Hill slope h: variable Hill slope fit (eq 2); for SAMHD1 inhibition (in words): MG assay dose-response curves

Sequence of Full-length human SAMHD1 (Q9Y3Z3 whole entry): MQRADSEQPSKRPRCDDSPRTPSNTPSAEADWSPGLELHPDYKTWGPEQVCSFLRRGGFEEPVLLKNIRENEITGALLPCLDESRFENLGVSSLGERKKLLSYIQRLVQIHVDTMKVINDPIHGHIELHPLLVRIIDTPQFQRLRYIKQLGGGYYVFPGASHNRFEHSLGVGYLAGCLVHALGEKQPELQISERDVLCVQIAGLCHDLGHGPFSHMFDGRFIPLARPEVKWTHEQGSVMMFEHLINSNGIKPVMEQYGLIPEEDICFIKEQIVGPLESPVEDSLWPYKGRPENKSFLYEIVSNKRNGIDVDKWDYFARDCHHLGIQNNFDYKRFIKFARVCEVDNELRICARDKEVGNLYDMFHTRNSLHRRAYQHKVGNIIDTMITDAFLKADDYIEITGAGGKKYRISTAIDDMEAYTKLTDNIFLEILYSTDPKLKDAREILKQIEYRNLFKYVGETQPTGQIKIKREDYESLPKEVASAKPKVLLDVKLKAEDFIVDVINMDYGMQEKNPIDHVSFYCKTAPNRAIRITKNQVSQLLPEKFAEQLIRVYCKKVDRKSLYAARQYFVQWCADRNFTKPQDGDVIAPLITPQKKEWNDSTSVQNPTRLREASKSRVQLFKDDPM

| SMILES | SAMHD1 inhibition (in words) | also measured |
| --- | --- | --- |
| CC(=O)OCC1=C(C(=O)O)N2C(=O)[C@@H](NC(=O)CCC[C@@H](N)C(=O)O)[C@H]2SC1 [CC-Zn, cephalosporin C] | – | Hill slope h (MG assay dose-response): 1.4 ± 0.1; fold more potent inhibitor (Zn2+ salt vs sodium salt of Ceph C) (ratio of IC50 values of the two salt forms): 200 fold |
| CC(=O)OCC1=C(C(=O)O)N2C(=O)[C@@H](NC(=O)CCC[C@@H](N)C(=O)O)[C@H]2SC1 [Ceph C, cephalosporin C] | weakly inhibitory | – |
| [Cl-].[Cl-].[Zn+2] [Zn^2+] | – | Hill slope h (MG assay dose-response): 1.2 ± 0.1; IC50 (MG assay dose-response, 0.5 μM SAMHD1, 5 μM PPase, 0.1 mM dGTP, 5 mM MgCl2): 2.1 ± 0.2 µM; inhibition after addition of EDTA (approximately stoichiometric amounts of EDTA added): completely rescued |
| Nc1ncnc2c1ncn2[C@H]1C[C@H](O)[C@@H](CO)O1 [dAdo, deoxyadenosine] | only dGuo showed significant inhibition | – |
| Nc1ccn([C@H]2C[C@H](O)[C@@H](CO)O2)c(=O)n1 [dCyt, deoxycytosine] | only dGuo showed significant inhibition | – |
| Nc1nc2c(ncn2[C@H]2C[C@H](O)[C@@H](CO)O2)c(=O)[nH]1 [dGuo, deoxyguanosine] | significant inhibition | IC50: 488 ± 50 µM |
| O=c1[nH]cnc2c1ncn2[C@H]1C[C@H](O)[C@@H](CO)O1 [dIno] | significantly less inhibitory | – |
| Cc1cn([C@H]2C[C@H](O)[C@@H](CO)O2)c(=O)[nH]c1=O [dThy, deoxythymidine] | only dGuo showed significant inhibition | – |
| O=c1ccn([C@H]2C[C@H](O)[C@@H](CO)O2)c(=O)[nH]1 [dUrd, deoxyuridine] | only dGuo showed significant inhibition | – |
| Nc1nc2c(ncn2[C@H]2CC[C@@H](CO)O2)c(=O)[nH]1 [ddGuo] | significantly weaker inhibition | – |
| Nc1nc2c(ncn2[C@@H]2O[C@H](CO)[C@@H](O)[C@H]2O)c(=O)[nH]1 [rGuo] | significantly weaker inhibition | – |
